Experimental findings from patent US20250171431A1, “HETEROCYCLIC INHIBITORS OF IGF-1R FOR TREATMENT OF DISEASE” (HORIZON THERAPEUTICS IRELAND DAC, priority 2023, published 2025) are described below.

Broadly, the IC50 is the midpoint of a concentration-inhibition curve.

For this assay, the target named is IGF-1R (Homo sapiens (Human), UniProt P08069). Kind of assay: Example B-1: IGF-1R Assay (PC3 cells, IGF1 stimulation, AlphaLISA). Format: cell-based. The note with it: 200 ng/mL IGF1 stimulation, read-out: Biological Activity against IGF-1R IC50. The essentials: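 PC3 cells were serum-starved 2 h, treated with serially diluted compounds for 2 h, then stimulated with IGF1 (200 ng/mL final) for 30 min. Lysates were read by AlphaLISA; % inhibition was calculated relative to vehicle and EC80 controls, with IC50 values binned into ranges.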
Sequence of IGF-1R (P08069 31-1367): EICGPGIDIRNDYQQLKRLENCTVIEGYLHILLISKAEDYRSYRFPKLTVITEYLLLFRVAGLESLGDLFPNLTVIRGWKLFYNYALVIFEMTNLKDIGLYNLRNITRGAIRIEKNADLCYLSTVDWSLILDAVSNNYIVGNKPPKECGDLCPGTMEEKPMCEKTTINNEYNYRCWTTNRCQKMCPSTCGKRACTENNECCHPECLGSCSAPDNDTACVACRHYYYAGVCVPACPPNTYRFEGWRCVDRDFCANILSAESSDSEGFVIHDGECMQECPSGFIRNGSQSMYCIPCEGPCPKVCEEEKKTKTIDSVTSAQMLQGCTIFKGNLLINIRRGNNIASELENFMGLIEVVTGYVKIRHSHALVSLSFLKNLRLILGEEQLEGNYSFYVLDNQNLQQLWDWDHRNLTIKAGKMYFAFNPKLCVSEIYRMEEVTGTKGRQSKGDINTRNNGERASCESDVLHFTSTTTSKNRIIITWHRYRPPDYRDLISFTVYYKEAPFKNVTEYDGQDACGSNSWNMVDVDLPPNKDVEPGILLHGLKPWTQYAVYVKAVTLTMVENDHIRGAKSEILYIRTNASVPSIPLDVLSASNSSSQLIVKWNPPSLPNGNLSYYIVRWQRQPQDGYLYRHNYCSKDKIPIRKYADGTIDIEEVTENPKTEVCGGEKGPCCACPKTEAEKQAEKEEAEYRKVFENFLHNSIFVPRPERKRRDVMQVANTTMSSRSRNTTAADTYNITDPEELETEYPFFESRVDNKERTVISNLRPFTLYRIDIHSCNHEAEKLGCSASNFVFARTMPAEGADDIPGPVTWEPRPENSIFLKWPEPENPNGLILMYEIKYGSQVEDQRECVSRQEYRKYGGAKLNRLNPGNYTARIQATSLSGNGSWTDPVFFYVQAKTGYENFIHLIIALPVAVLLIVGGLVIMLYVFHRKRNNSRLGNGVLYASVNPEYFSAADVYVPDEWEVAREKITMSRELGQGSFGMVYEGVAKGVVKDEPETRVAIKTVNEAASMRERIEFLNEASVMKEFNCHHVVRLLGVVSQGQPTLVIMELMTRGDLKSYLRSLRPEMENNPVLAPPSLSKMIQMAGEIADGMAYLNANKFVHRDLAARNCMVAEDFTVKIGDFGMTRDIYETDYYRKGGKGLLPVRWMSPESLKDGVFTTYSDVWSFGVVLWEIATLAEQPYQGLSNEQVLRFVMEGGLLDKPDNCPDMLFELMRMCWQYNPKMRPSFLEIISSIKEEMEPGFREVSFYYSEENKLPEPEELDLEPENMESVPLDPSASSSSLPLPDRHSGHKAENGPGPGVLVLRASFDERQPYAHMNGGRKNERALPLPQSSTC
For orientation: In Alpha technology, singlet oxygen from a donor bead excites a nearby acceptor bead.
Regarding `COc1cc(Nc2nccc(Nc3cnc4cc(Br)ccc4c3)n2)ccc1O[C@H]1C[C@H](N(C)C)C1` [Compound 328, 4-(7-bromo-3-quinolylamino)-2-{3-methoxy-4-[(1r,3r)-3-(dimethylamino)cyclobutoxy]phenylamino}pyrimidine], the IC50 is no more than 0.5 µM.

Consider `COc1cc(Nc2nccc(Nc3cnc4ccc(S(C)(=O)=O)cc4c3)n2)ccc1O[C@H]1C[C@H](N(C)C)C1` [Compound 329, 4-(6-mesyl-3-quinolylamino)-2-{3-methoxy-4-[(1r,3r)-3-(dimethylamino)cyclobutoxy]phenylamino}pyrimidine], for which the IC50 was no more than 0.5 µM.

As for `COc1cc(Nc2nccc(Nc3cnc4ccc(O)cc4c3)n2)ccc1O[C@H]1C[C@H](N(C)C)C1` [Compound 330, 3-(2-{3-methoxy-4-[(1r,3r)-3-(dimethylamino)cyclobutoxy]phenylamino}-4-pyrimidinylamino)-6-quinolinol], the IC50 was no more than 0.5 µM.

Take `COc1cc(Nc2nccc(Nc3cnc4ccccc4c3)n2)ccc1O[C@H]1CC[C@@H](N(C)C)CC1` [Compound 331]: the IC50 was no more than 0.5 µM.

As for `COc1cc(Nc2nccc(Nc3cnc4c(Cl)cccc4c3)n2)ccc1O[C@H]1CC[C@@H](N(C)C)CC1` [Compound 332, 4-(8-chloro-3-quinolylamino)-2-{3-methoxy-4-[(1s,4s)-4-(dimethylamino)cyclohexyloxy]phenylamino}pyrimidine], the half-inhibitory concentration (IC50) was no more than 0.5 µM.

In the case of `COc1cc(Nc2nccc(Nc3cnc4c(Cl)cccc4c3)n2)ccc1O[C@H]1CC[C@@H](N2CCOCC2)CC1` [Compound 333, 4-(8-chloro-3-quinolylamino)-2-{3-methoxy-4-[(1s,4s)-4-morpholinocyclohexyloxy]phenylamino}pyrimidine], the IC50 was no more than 0.5 µM.

Regarding `COc1cc(Nc2nccc(Nc3cnc4ccc(C(F)(F)F)cc4c3)n2)ccc1O[C@H]1C[C@H](N(C)C)C1` [Compound 334, 2-{3-methoxy-4-[(1r,3r)-3-(dimethylamino)cyclobutoxy]phenylamino}-4-[6-(trifluoromethyl)-3-quinolylamino]pyrimidine], the IC50 is no more than 0.5 µM.

Turning to `COc1cc(Nc2nccc(Nc3cnc4ccc(C)cc4c3)n2)ccc1O[C@H]1C[C@H](N(C)C)C1` [Compound 335, 2-{3-methoxy-4-[(1r,3r)-3-(dimethylamino)cyclobutoxy]phenylamino}-4-(6-methyl-3-quinolylamino)pyrimidine], the half-inhibitory concentration (IC50) was no more than 0.5 µM.

With `COc1cc(Nc2nccc(Nc3cnc4cc(C)ccc4c3)n2)ccc1O[C@H]1C[C@H](N(C)C)C1` [Compound 336, 2-{3-methoxy-4-[(1r,3r)-3-(dimethylamino)cyclobutoxy]phenylamino}-4-(7-methyl-3-quinolylamino)pyrimidine], the half-maximal inhibitory concentration (IC50) is no more than 0.5 µM.

In the case of `COc1ccc2cc(Nc3ccnc(Nc4ccc(O[C@H]5C[C@H](N(C)C)C5)c(OC)c4)n3)cnc2c1` [Compound 337, 4-(7-methoxy-3-quinolylamino)-2-{3-methoxy-4-[(1r,3r)-3-(dimethylamino)cyclobutoxy]phenylamino}pyrimidine], the concentration for half-maximal inhibition (IC50) is no more than 0.5 µM.

Consider `COc1cc(Nc2nccc(Nc3cnc4c(c3)CCC(C)(C)C4)n2)ccc1O[C@H]1C[C@H](N(C)C)C1` [Compound 338, 4-(7,7-dimethyl-5,6,7,8-tetrahydro-3-quinolylamino)-2-{3-methoxy-4-[(1r,3r)-3-(dimethylamino)cyclobutoxy]phenylamino}pyrimidine], for which the IC50 is no more than 0.5 µM.

Take `COc1cc(Nc2nccc(Nc3cnc4c(c3)CC(C)(C)CC4)n2)ccc1O[C@H]1C[C@H](N(C)C)C1` [Compound 339, 4-(6,6-dimethyl-5,6,7,8-tetrahydro-3-quinolylamino)-2-{3-methoxy-4-[(1r,3r)-3-(dimethylamino)cyclobutoxy]phenylamino}pyrimidine]: the half-maximal inhibitory concentration (IC50) was no more than 0.5 µM.

`COc1cc(Nc2nccc(Nc3cc4ccccc4nc3OC)n2)ccc1O[C@H]1C[C@H](N(C)C)C1` [Compound 340, 4-(2-methoxy-3-quinolylamino)-2-{3-methoxy-4-[(1r,3r)-3-(dimethylamino)cyclobutoxy]phenylamino}pyrimidine]: the IC50 was no more than 0.5 µM.

For `COc1cc(Nc2nccc(Nc3cnc4cc(C(F)(F)F)ccc4c3)n2)ccc1O[C@H]1C[C@H](N(C)C)C1` [Compound 341, 2-{3-methoxy-4-[(1r,3r)-3-(dimethylamino)cyclobutoxy]phenylamino}-4-[7-(trifluoromethyl)-3-quinolylamino]pyrimidine], the IC50 lay within 0.5 to 2 µM.

On to `COc1cc(Nc2nccc(Nc3cnc4cc(Cl)ccc4c3)n2)ccc1O[C@H]1C[C@@H](N(C)C)C1` [Compound 342, 4-(7-chloro-3-quinolylamino)-2-{3-methoxy-4-[(1s,3s)-3-(dimethylamino)cyclobutoxy]phenylamino}pyrimidine], for which the IC50 is no more than 0.5 µM.

As to `COc1cc(Nc2nccc(Nc3cnc4ccc(Cl)cc4c3)n2)ccc1O[C@H]1C[C@@H](N(C)C)C1` [Compound 343, 4-(6-chloro-3-quinolylamino)-2-{3-methoxy-4-[(1s,3s)-3-(dimethylamino)cyclobutoxy]phenylamino}pyrimidine], the IC50 is no more than 0.5 µM.

`COc1ccc2cc(Nc3ccnc(Nc4ccc(O[C@@H]5C[C@H]6COC[C@@H](C5)N6C)cc4)n3)cnc2c1` [Compound 345, 2-(p-{(1R,5S,7s)-9-methyl-3-oxa-9-azabicyclo[3.3.1]non-7-yloxy}phenylamino)-4-(7-methoxy-3-quinolylamino)pyrimidine]: the 50% inhibitory concentration (IC50) is 0.5 to 2 µM.

`COc1ccc2cc(Nc3ccnc(Nc4ccc(O[C@H]5C[C@H]6COC[C@@H](C5)N6C)cc4)n3)cnc2c1` [Compound 346, 2-(p-{(1R,5S,7r)-9-methyl-3-oxa-9-azabicyclo[3.3.1]non-7-yloxy}phenylamino)-4-(7-methoxy-3-quinolylamino)pyrimidine]: the IC50 lay in the range of 0.5 to 2 µM.

Consider `O=S1(=O)CCN([C@H]2C[C@H](Oc3ccc(Nc4nccc(Nc5cnc6ccc(Br)cc6c5)n4)cc3)C2)CC1` [Compound 347], for which the half-maximal inhibitory concentration (IC50) was no more than 0.5 µM.

Turning to `O=S1(=O)CCN([C@H]2C[C@H](Oc3ccc(Nc4nccc(Nc5cnc6c(c5)OCCO6)n4)cc3)C2)CC1` [Compound 348], the IC50 was no more than 0.5 µM.

In the case of `O=S1(=O)CCN([C@H]2C[C@H](Oc3ccc(Nc4nccc(Nc5cnc6c(Cl)cccc6c5)n4)cc3)C2)CC1` [Compound 349], the IC50 lay within 0.5 to 2 µM.

Consider `O=S1(=O)CCN([C@H]2C[C@H](Oc3ccc(Nc4nccc(Nc5cnc6cc(Cl)ccc6c5)n4)cc3)C2)CC1` [Compound 350, 4-[(1r,3r)-3-{p-[4-(7-chloro-3-quinolylamino)-2-pyrimidinylamino]phenoxy}cyclobutyl]-1λ^6,4-thiazinane-1,1-dione], for which the 50% inhibitory concentration (IC50) was in the range of 2 to 10 µM.

In the case of `O=S1(=O)CCN([C@H]2C[C@H](Oc3ccc(Nc4nccc(Nc5cnc6c(c5)C5CCC6C5)n4)cc3)C2)CC1` (stereo partly drawn) [Compound 351, 4-[(1r,3r)-3-[p-(4-{3-azatricyclo[6.2.1.02,7]undeca-2(7),3,5-trien-5-ylamino}-2-pyrimidinylamino)phenoxy]cyclobutyl]-1λ^6,4-thiazinane-1,1-dione], the IC50 lay in the range of 0.5 to 2 µM.

Consider `COc1ccc2cc(Nc3ccnc(Nc4ccc(O[C@H]5C[C@@H](N6CCOCC6)C5)cc4)n3)cnc2c1` [Compound 352, 4-(7-methoxy-3-quinolylamino)-2-{p-[(1s,3s)-3-morpholinocyclobutoxy]phenylamino}pyrimidine], for which the half-maximal inhibitory concentration (IC50) is 2 to 10 µM.

With `COc1ccc2cc(Nc3ccnc(Nc4ccc(O[C@H]5C[C@H](N6CCS(=O)(=O)CC6)C5)cc4)n3)cnc2c1` [Compound 353], the IC50 was 2 to 10 µM.

Regarding `COc1ccc2cc(Nc3ccnc(Nc4ccc(O[C@H]5C[C@H](N6CCCCC6)C5)cc4)n3)cnc2c1` [Compound 354, 4-(7-methoxy-3-quinolylamino)-2-{p-[(1r,3r)-3-piperidinocyclobutoxy]phenylamino}pyrimidine], the IC50 lay within 2 to 10 µM.

Turning to `COc1ccc2cc(Nc3ccnc(Nc4ccc(O[C@H]5C[C@H](N(C)C)C5)cc4)n3)cnc2c1` [Compound 355, 4-(7-methoxy-3-quinolylamino)-2-{p-[(1r,3r)-3-(dimethylamino)cyclobutoxy]phenylamino}pyrimidine], the concentration for half-maximal inhibition (IC50) was 0.5 to 2 µM.

With `COc1ccc2cc(Nc3ccnc(Nc4ccc(O[C@H]5C[C@H](N6CCOCC6)C5)cc4)n3)cnc2c1` [Compound 356, 4-(7-methoxy-3-quinolylamino)-2-{p-[(1r,3r)-3-morpholinocyclobutoxy]phenylamino}pyrimidine], the concentration for half-maximal inhibition (IC50) is 0.5 to 2 µM.

For the compound `COc1cc(Nc2nccc(Nc3cnc4c(Cl)cccc4c3)n2)ccc1O[C@H]1C[C@H](N(C)C)C1` [Compound 358, 4-(8-chloro-3-quinolylamino)-2-{3-methoxy-4-[(1r,3r)-3-(dimethylamino)cyclobutoxy]phenylamino}pyrimidine], the concentration for half-maximal inhibition (IC50) is no more than 0.5 µM.

For the compound `COc1cc(Nc2nccc(Nc3cnc4c(c3)OCCO4)n2)ccc1O[C@H]1C[C@H](N2CCS(=O)(=O)CC2)C1` [Compound 359, 4-[(1r,3r)-3-{4-[4-(2,3-dihydro-1,4-dioxa-5-aza-7-naphthylamino)-2-pyrimidinylamino]-2-methoxyphenoxy}cyclobutyl]-1λ^6,4-thiazinane-1,1-dione], the IC50 is no more than 0.5 µM.

Regarding `COc1cc(Nc2nccc(Nc3cnc4c(c3)CCCO4)n2)ccc1O[C@H]1C[C@H](N2CCOCC2)C1` [Compound 360, 4-(3,4-dihydro-2H-1-oxa-8-azanaphth-6-ylamino)-2-{3-methoxy-4-[(1r,3r)-3-morpholinocyclobutoxy]phenylamino}pyrimidine], the IC50 was no more than 0.5 µM.

Regarding `COc1cc(Nc2nccc(Nc3cnc4ccc(Cl)cc4c3)n2)ccc1O[C@H]1C[C@H](N2CCOCC2)C1` [Compound 361, 4-(6-chloro-3-quinolylamino)-2-{3-methoxy-4-[(1r,3r)-3-morpholinocyclobutoxy]phenylamino}pyrimidine], the IC50 is no more than 0.5 µM.

`c1ccc2ncc(Nc3ccnc(Nc4ccc(O[C@H]5C[C@@H](N6CCCCC6)C5)cc4)n3)cc2c1` [Compound 363, 4-(3-quinolylamino)-2-{p-[(1s,3s)-3-piperidinocyclobutoxy]phenylamino}pyrimidine]: the IC50 is no more than 0.5 µM.
